Assay results reported in patent publication US20070081991A1, “Compositions and methods for modulation of immune responses” (Pepgen Corporation, priority 2001, published 2007).
Entries after “also recorded” stand apart in the source; their conditions may differ.

Experiments:
Type in all cases: cell-based, human
[1] = tested on: NKL and Nishi effector cells; test: Killing of K562-E*01033 cells grown at increasing cell density (stress), 2 h 51Cr release; conditions: peptide added in the assay; 100 mM B7sp (FIG. 6b legend)
Experimental: (a) Killing of K562-E*01033 cells (grown at increasing cell densities as in FIG. 3b) by NKL in a 2 h 51Cr release assay. (b) Same experimental setting as above, in the presence of 100 mM B7sp. Closed circles-high density; open squares-medium density; closed triangles-low density. (c) HLA-E expression on the K562-E*01033 cells after culture at increasing cell density.
Briefly, cell cultures were set up at the cell concentration of 0.2.10^6 cells/ml at different time points for a period of up to 6 days. At the end point, cell concentration and viability were determined by trypan blue exclusion. The expression of cell-surface HLA class I molecules was assessed by flow cytometry. Cell cultures with viability higher than 90% and at three different densities were selected as targets for cytotoxic assays. HLA-E Tetramer Production
K562-E*01033 cells grown at different densities were tested as targets in a 2 hours chromium release assay with NKL and Nishi as effector cells. […] The data also subbest that HLA-E expression induced by stress is not sufficient to protect from NK cell mediated killing. […] Therefore it is unlikely that the increased killing after cellular stress observed in some of the experiments herein is due to an increased expression of MIC-A or MIC-B. Up-regulation of other activating ligands, e.g., ULBP's, may also be responsible for the increase in killing.

[2] = tested on: CD94/NKG2A+ NK cell lines Nishi and NKL; test: NK cell-mediated cytotoxicity, 2 h 51Cr release, peptide-loaded K562-E*01033 targets; conditions: targets incubated overnight at 26° C. with peptide; effectors NKL and Nishi
Experimental: K562-E*01033 cells were incubated with the different peptides at 26° C. for 15-20 hours, and then tested in 2 h 51Cr release assays. In order to ensure that the levels of HLA-E with a protective peptide, and not the HLA-E levels as such, provided the protective capacity we kept the non-protective peptides, but omitted the B7sp, during the assays. (a) Killing of K562-E*01033 cells by NKL (left) or Nishi (right) after incubation with […], 300 mM hsp60sp, or 30 mM B7sp. 50 mM of P18I10 control peptide and hsp60sp was also included during the assays. Data from an E:T ratio of 30:1 is shown. The figure represents the mean of at least three experiments. Error bars indicate standard error of the mean. (b) Killing of K562-E*01033 cells by NKL (left panel) or Nishi (right panel) incubated over night with 30 mM 7sp, 300 mM P18I10 (pCtrl), 300 mM B7 R5V, 300 mM hsp60sp, or 300 mM hsp60 V5R. 50 mM of all peptides, except B7sp, were included during the assay. Peptide concentrations were chosen according to FIG. 5c. The figure represents the mean of at least three experiments. Error bars indicate standard error of the mean. (c) HLA-E cell surface expression by K562-E*01033 after the assay. A cold target preparation was prepared in parallel as in (a) and (b), and then stained with DX17 mAb (anti-HLA class I), followed by RPE-conjugated goat-anti-mouse IgG. One representative example out of more than 5 is shown. Note that, as in (a) and (b), 50 mM of all peptides, except for B7sp, was present during the time of the assay, explaining the lower HLA-E expression with B7sp compared to Hsp60sp, Hsp60 V5R and B7 R5V. (d) Killing of K562-E*01033 cells by Nishi after incubation for 30 min at room temperature with 0.1 mM B7sp and increasing amounts of competing peptides (hsp60sp, hsp60.4, B7 R5V and P18I10). All the peptides were kept throughout the assay
NK cell-mediated cytotoxicity was measured using a 2 hours standard ^51Cr radioisotope release assay. Briefly, target cells were incubated for 15-20 hours at 26° C. with the various peptides at concentrations ranging from 1-300 μM, and then labeled with ^51Cr. Peptides were washed away prior to setting up the assays, except in some experiments where the non-protective hsp60sp, B7 R5V and hsp60 V5R was kept throughout the assay to assure higher levels of HLA-E expression, as compared to targets incubated with the protective B7sp. In mAb blocking experiments, cells were preincubated with mouse serum, or an irrelevant isotype matched antibody to block Fc-receptors. Blocking of either target or effector cells with mAbs was performed at 4° C., and the antibodies were also included during the assays. […]

[3] = tested on: NK cells of PB and SF mononuclear cells of RA patients; test: NK cell cytokine production on contact with peptide stabilized K562 HLA-E*01033 cells (intracellular staining, flow cytometry); conditions: K562 HLA-E*01033 stabilized with various doses of peptide; 1:1 cell ratio, 4 hours
Experimental: HLA-E expression was stabilized on K562 cells transfected with HLA-E*01033, by incubation with various doses of HLA-B7 signal sequence derived peptide ([…]) (SEQ ID NO: 3). PB and SF mononuclear cells (MC) of RA patients were then incubated with peptide stabilized K562 cells (1:1 cell ratio) for 4 hours in the presence of GolgiStop™. Cells were surface stained for CD3 and CD56 and thereafter stained intracellularly for IFN-gamma or TNF-alpha. Analysis was performed by flow cytometry.

HLA-E = HLA-E stabilization assay (cell surface expression by flow cytometry); conditions: K562 cells transfected with HLA-E*01033 or HLA-E*0101; overnight incubation with peptide at 26° C.
Experimental: Synthetic peptides, purchased from Research Genetics, were dissolved in PBS. The peptides used were B7sp ([…]) (SEC ID NO: 3), hsp60sp ([…]) (SEC ID NO: 2), B7 R5V ([…]) (SEC ID NO: 14), hsp60 V5R ([…]) ([…]), and P18I10 ([…]) (SEC ID NO: 113) (all from Research Genetics, Huntsville, Ala.). Cells and their HLA-E transfected derivatives were incubated with synthetic peptides (3-300 μM) at 26° C. for 15-20 hours in serum-free AIM-V medium (GibcoBRL, Paisley Scotland) at a concentration of 1-3.10^6 cells/ml. Cells were then harvested, washed in PBS, stained with mAbs and analyzed by flow cytometry. Cells were subjected to stress by allowing them to grow at increasing cell density.
To test whether the hsp60-derived peptides were able to bind HLA-E, stabilized HLA-E cell surface expression was stabilized with the different synthetic peptides, by overnight incubation at 26° C. For this purpose MHC class I-deficient cell lines such as 721.221 (which lack HLA-A, -B, -C, and -G, but express HLA-E and -F intracellularly), as well as K562 cells transfected with HLA-E*01033 (K562-E*01033) or HLA-E*0101 were employed. The 721.221 cells and HLA-E transfected, but not untransfected, K562 cells express low levels of HLA-E at the cell surface during normal cell growth.

In the case of VMAPRTVLL [B7sp], the “rescue of stressed (high density) K562-E*01033 cells from killing” value [1] is reported as “could be rescued from killing by addition of B7sp peptide; also recorded: stressed cells were protected simply by adding the protective B7sp peptide”, the “protection of K562-E*01033 cells from killing by NK cells” value [2] is reported as “clear protection from killing” and the “NK cell IFN-gamma production” value [3] is reported as “sufficient to inhibit NK cell IFN-gamma and TNF-alpha cytokine production”. The “NK cell TNF-alpha production” value [3] was “sufficient to inhibit NK cell IFN-gamma and TNF-alpha cytokine production” and the “HLA-E cell surface expression (stabilization)” value (HLA-E) was “stabilization of HLA-E”.
